# Assay results published in ChEMBL document CHEMBL1781914, “Syntheses and initial evaluation of a series of indolo-fused heterocyclic inhibitors of the polymerase enzyme (NS5B) of the hepatitis C virus” (Bioorg Med Chem Lett, 2011).
# pEC50, pIC50: −log10 of the molar value.
# What was measured:
# [1] = Oral bioavailability in rat; type: ADME, organism-based; conditions: in vivo
# [2] = AUC in iv and po dosed rat; type: ADME, organism-based; conditions: plasma
# [3] = Drug clearance in rat at 2 mg/kg, iv; type: ADME, organism-based; set-up: dose 2 mg/kg, route intravenous; conditions: in vivo
# Hepatitis C virus [4] = test: Inhibition of HCV genotype 1b NS5B polymerase expressed in Escherichia coli BL21(DE3) after 60 mins by FRET assay; set-up: species or system Hepatitis C virus subtype 1b; conditions: BL21-DE3, 1 h
# Hepatitis C virus [5] = test: Antiviral activity against HCV infected in human Huh7 cells assessed as inhibition of viral replication by luciferase assay; type: functional, organism-based, Hepacivirus hominis; conditions: Huh-7
bioavailability [1] [%],AUC [2] [µM·h],clearance [3] [mL/min/kg],pIC50 (Hepatitis C virus [4]),pEC50 (Hepatitis C virus [5]),SMILES
8,0.28,250,7.52,7.70,O=C(O)/C=C/c1ccc(OC(=O)C2(NC(=O)c3ccc4c(C5CCCCC5)c5n(c4c3)CCCc3ccccc3-5)CCCC2)cc1
5,0.79,17,7.52,8.00,O=C(O)/C=C/c1ccc(OC(=O)C2(NC(=O)c3ccc4c(C5CCCCC5)c5n(c4c3)CCOc3ccccc3-5)CCCC2)cc1
17.6,,,7.15,6.62,O=C1Cn2c(c(C3CCCCC3)c3ccc(C(=O)O)cc32)-c2ccccc2N1
3,0.66,13,7.70,8.00,O=C(O)/C=C/c1ccc(OC(=O)C2(NC(=O)c3ccc4c(C5CCCCC5)c5n(c4c3)CC(=O)Nc3ccccc3-5)CCCC2)cc1
,,,6.22,6.57,O=C(O)c1ccc2c(C3CCCCC3)c3n(c2c1)CCCCNc1ccccc1-3
12.3,3.61,8.7,7.05,7.70,O=C(O)/C=C/c1ccc(OC(=O)C2(NC(=O)c3ccc4c(C5CCCCC5)c5n(c4c3)CCCCNc3ccccc3-5)CCCC2)cc1
,,,6.08,6.15,O=C(O)c1ccc2c(C3CCCCC3)c3n(c2c1)CCCc1ccccc1-3
,,,6.16,6.23,O=C(O)c1ccc2c(C3CCCCC3)c3n(c2c1)CCOc1ccccc1-3
